Assay [1] deals with T1, Acetylcholinesterase (Electrophorus electricus, UniProt O42275).
Description: Inhibition of electric eel AChE using acetylthiocholine iodide as substrate preincubated for 15 mins followed by substrate addition measured after 20 mins by Ellman's method
The target in assay [2] is T2, Cholinesterase (Equus caballus, UniProt P81908).
Description: Inhibition of equine serum BuChE using butyrylthiocholine iodide as substrate preincubated for 15 mins followed by substrate addition measured after 20 mins by Ellman's method
Assay [3] concerns the target Acetylcholinesterase (Electrophorus electricus) (UniProt O42275). Briefly: Potency index, ratio of rivastigmine IC50 to compound IC50 for electric eel AChE.
For assay [4], the target named is Cholinesterase (Equus caballus) (UniProt P81908). Kind of assay: Potency index, ratio of rivastigmine IC50 to compound IC50 for equine serum BuChE.
For another assay, the system named is T47D. Briefly: cells. The note with it: Homo sapiens, 72 h.
The subject of a further assay is MCF7. Kind of assay: cells. The conditions noted are these: Homo sapiens, MCF7, 72 h.
Assay [5] has as its target T2, Cholinesterase. Briefly: Mixed-type inhibition of equine serum BuChE using butyrylthiocholine iodide as substrate preincubated for 15 mins followed by substrate addition measured after 20 mins by Lineweaver-Burk plot analysis.
A further assay deals with MDA-MB-231. Briefly: cells. The conditions noted are these: Homo sapiens, MDA-MB-231, 72 h.
The nature of assay [6]: Antioxidant activity assessed as DPPH radical scavenging activity incubated under dark condition for 30 mins by UV-Visible spectrophotometric method. Type of assay: functional. (Loss of DPPH colour is used to gauge radical scavenging.)
Assay [7] has as its system PC-12. Briefly: Neuroprotective activity against H2O2-induced cell death in rat PC12 cells assessed as cell viability at 50 uM preincubated for 3 hrs followed by H2O2 addition measured after 24 hrs by MTT assay relative to control. In kind it is functional. The note with it: read-out: Activity.
For assay [8], the system named is Rattus norvegicus. Kind of assay: Reversal of scopolamine-induced memory impairment in Wistar albino rat assessed as increase in time spent in target quadrant at 5 to 20 mg/kg, ip administered for 4 consecutive days 60 mins prior to test followed by scopolamine challenge 30 mins prior to test measured on day 5 by Morris water maze test. In kind it is functional, organism-based.

Assay [9] deals with Rattus norvegicus. Briefly: Reversal of scopolamine-induced memory impairment in Wistar albino rat assessed as decrease in traveled distance during 4 days training period at 5 to 20 mg/kg, ip administered 60 mins prior to test for 4 consecutive days followed by scopolamine challenge 30 mins prior to test by Morris water maze test. In kind it is functional, organism-based.
Assay [10] has as its system Rattus norvegicus. Kind of assay: Reversal of scopolamine-induced memory impairment in Wistar albino rat assessed as change in swimming speed during 4 days training period at 5 to 20 mg/kg, ip administered 60 mins prior to test for 4 consecutive days followed by scopolamine challenge 30 mins prior to test by Morris water maze test. In kind it is functional, organism-based.

In assay [11] the test system is PC-12. Briefly: Neuroprotective activity against H2O2-induced cell death in rat PC12 cells assessed as cell viability at 100 uM preincubated for 3 hrs followed by H2O2 addition measured after 24 hrs by MTT assay relative to control. Type of assay: functional. The note with it: read-out: Activity.
The target in assay [12] is T1, Acetylcholinesterase. Briefly: Mixed-type inhibition of electric eel AChE using acetylthiocholine iodide as substrate preincubated for 15 mins followed by substrate addition measured after 20 mins by Lineweaver-Burk plot analysis.
Assay [13] relates to Rattus norvegicus. Briefly: Reversal of scopolamine-induced memory impairment in Wistar albino rat assessed as decrease in escape latency time during 4 days training period at 5 to 20 mg/kg, ip administered 60 mins prior to test for 4 consecutive days followed by scopolamine challenge 30 mins prior to test by Morris water maze test. In kind it is functional, organism-based.

Assay [14] concerns PC-12. Kind of assay: Neuroprotective activity against H2O2-induced cell death in rat PC12 cells assessed as cell viability at 10 uM preincubated for 3 hrs followed by H2O2 addition measured after 24 hrs by MTT assay relative to control. Type of assay: functional. The note with it: read-out: Activity. A general note: Formazan colour is commonly taken as a measure of viable cells.

Calls of active or inactive are those of the source. No cut-off for these calls is given here.

Experimental findings from ChEMBL document CHEMBL4041518, “Novel tacrine-1,2,3-triazole hybrids: In vitro, in vivo biological evaluation and docking study of cholinesterase inhibitors” (Eur J Med Chem, 2017) are described below.

Sequence of Acetylcholinesterase (Electrophorus electricus) (O42275 24-633 limits assumed): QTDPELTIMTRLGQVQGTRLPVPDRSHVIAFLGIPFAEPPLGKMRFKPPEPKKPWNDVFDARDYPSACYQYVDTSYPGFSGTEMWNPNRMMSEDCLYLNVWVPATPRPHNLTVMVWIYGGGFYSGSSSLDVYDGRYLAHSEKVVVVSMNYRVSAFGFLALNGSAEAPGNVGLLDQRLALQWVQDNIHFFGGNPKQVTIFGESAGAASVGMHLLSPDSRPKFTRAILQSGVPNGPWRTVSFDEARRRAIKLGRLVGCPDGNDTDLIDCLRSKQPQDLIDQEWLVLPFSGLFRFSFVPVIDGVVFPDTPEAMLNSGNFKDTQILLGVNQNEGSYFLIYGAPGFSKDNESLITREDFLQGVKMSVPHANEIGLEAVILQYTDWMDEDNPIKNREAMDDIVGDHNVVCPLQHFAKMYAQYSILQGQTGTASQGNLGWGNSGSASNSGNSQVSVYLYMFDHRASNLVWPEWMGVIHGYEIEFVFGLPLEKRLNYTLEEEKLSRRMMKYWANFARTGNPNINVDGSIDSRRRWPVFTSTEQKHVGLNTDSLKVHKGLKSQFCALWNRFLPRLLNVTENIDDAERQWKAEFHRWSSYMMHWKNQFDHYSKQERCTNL
T1 sequence (O42275 whole entry): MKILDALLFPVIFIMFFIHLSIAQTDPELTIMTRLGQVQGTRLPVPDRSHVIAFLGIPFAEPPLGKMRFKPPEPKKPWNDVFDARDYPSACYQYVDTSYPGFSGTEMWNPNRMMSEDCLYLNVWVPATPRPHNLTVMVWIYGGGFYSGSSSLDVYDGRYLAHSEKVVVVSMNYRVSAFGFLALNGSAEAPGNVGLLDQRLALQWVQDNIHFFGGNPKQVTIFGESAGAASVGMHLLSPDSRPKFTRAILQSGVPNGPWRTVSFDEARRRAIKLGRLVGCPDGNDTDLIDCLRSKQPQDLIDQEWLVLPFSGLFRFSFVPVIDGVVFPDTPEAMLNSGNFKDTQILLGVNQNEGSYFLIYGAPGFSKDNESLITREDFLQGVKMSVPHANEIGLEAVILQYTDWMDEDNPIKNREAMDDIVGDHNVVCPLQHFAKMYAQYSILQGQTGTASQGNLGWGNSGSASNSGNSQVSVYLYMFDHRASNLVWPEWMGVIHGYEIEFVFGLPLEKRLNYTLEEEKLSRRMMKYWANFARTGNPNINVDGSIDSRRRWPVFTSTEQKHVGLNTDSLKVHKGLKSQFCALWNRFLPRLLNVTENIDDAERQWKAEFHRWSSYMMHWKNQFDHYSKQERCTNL
T2 sequence (P81908 whole entry): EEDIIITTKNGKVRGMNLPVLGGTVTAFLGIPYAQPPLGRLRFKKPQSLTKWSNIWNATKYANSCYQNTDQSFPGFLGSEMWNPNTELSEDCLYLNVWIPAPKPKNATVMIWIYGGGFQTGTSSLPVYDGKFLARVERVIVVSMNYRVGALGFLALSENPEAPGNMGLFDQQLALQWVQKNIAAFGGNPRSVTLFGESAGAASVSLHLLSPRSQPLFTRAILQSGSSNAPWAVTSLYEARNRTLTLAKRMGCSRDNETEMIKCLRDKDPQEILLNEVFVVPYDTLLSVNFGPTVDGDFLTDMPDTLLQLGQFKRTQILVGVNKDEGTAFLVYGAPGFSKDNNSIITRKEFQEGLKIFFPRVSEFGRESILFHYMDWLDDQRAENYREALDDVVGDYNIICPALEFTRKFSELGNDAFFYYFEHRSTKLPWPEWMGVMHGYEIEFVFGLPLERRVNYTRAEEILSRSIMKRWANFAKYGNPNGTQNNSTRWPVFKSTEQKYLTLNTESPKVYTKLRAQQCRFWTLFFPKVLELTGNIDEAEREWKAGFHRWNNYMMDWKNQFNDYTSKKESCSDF
Sequence of Cholinesterase (Equus caballus) (P81908 whole entry): as above
Description for MCF7: Cytotoxicity against human MCF7 cells assessed as reduction in cell viability after 72 hrs by MTT assay
Description for MDA-MB-231: Cytotoxicity against human MDA-MB-231 cells assessed as reduction in cell viability after 72 hrs by MTT assay
Description for T47D: Cytotoxicity against human T47D cells assessed as reduction in cell viability after 72 hrs by MTT assay

As a reminder, the IC50 is the concentration that gives 50% inhibition. A higher IC50 goes with weaker potency in that assay. Take `Cc1ccc(Cn2cc(CNc3c4c(nc5cc(Cl)ccc35)CCCC4)nn2)cc1`: the IC50 worked out at 1110 nM on Acetylcholinesterase [1] and 65 nM at Cholinesterase [2]. Also, the Ratio IC50 is 3 to 21 in assay [3] and 2 to 140 in assay [4].
For `Clc1ccc2nc3c(c(NCc4cn(Cc5ccccc5)nn4)c2c1)CCCC3`, the figures for the IC50 against Acetylcholinesterase [1] and on Cholinesterase [2] were 2390 nM and over 5000 nM, respectively. The Ratio IC50 is 3 to 21 in assay [3] and 2 to 140 in [4].
As usually defined, the Ki is the equilibrium dissociation constant of an inhibitor or competing ligand from its target. Higher therefore signals lower affinity. Consider `COc1ccc(Cn2cc(CNc3c4c(nc5ccccc35)CCCC4)nn2)cc1`, for which the IC50 was 2000 nM on Acetylcholinesterase [1]; 55 nM at Cholinesterase [2]; 94.1 µM in the assay on T47D; over 100 µM in the assay with MCF7; over 100 µM with MDA-MB-231. The Ratio IC50 in assay [3] lay within 3 to 21; in assay [4], 2 to 140. Moreover, at Cholinesterase [5], the affinity corresponds to a Ki of 121 nM.
Regarding `COc1ccc(Cn2cc(CNc3c4c(nc5cc(Cl)ccc35)CCCC4)nn2)cc1`, the IC50 amounted to 737 nM against Acetylcholinesterase [1] and 115 nM at Cholinesterase [2]. The values for the Ratio IC50 in [3] and in assay [4] were 3 to 21 and 2 to 140, respectively.
For the compound `Fc1ccc(Cn2cc(CNc3c4c(nc5cc(Cl)ccc35)CCCC4)nn2)cc1`, the IC50 at Acetylcholinesterase [1] worked out at 2280 nM; against Cholinesterase [2] it was 216 nM; in the assay on T47D, 80 µM; in the assay with MCF7, 87.5 µM; in the assay with MDA-MB-231, 83.4 µM. Further, the Ratio IC50 in assay [3] was 3 to 21; in assay [4], 2 to 140.
For the compound `c1ccc(Cn2cc(CNc3c4c(nc5ccccc35)CCCC4)nn2)cc1`, the 50% inhibitory concentration (IC50) against Acetylcholinesterase [1] was 3300 nM; against Cholinesterase [2] it was 180 nM; in the assay on T47D it was 62.9 µM; with MCF7 it was 97.1 µM; in the assay with MDA-MB-231, 81.4 µM. In addition, the results for the Ratio IC50 in [3] and in assay [4] were 3 to 21 and 2 to 140, respectively.
As for `Clc1ccc(Cn2cc(CNc3c4c(nc5ccccc35)CCCC4)nn2)cc1`, in assay [6], the outcome was inactive. Also, the half-maximal inhibitory concentration (IC50) against Acetylcholinesterase [1] was 1970 nM; at Cholinesterase [2], 151 nM. Also, the results for the Ratio IC50 in assay [3] and in assay [4] were 3 to 21 and 2 to 140, respectively.
With `Fc1ccc(Cn2cc(CNc3c4c(nc5ccccc35)CCCC4)nn2)cc1`, the IC50 was 2380 nM against Acetylcholinesterase [1]; 59 nM at Cholinesterase [2]; over 100 µM with T47D; over 100 µM in the assay on MCF7; over 100 µM in the assay with MDA-MB-231. The Ratio IC50 in assay [3] was 3 to 21; in assay [4], 2 to 140.
For `Cc1ccc(Cn2cc(CNc3c4c(nc5ccccc35)CCCC4)nn2)cc1`, the IC50 came out at 621 nM against Acetylcholinesterase [1] and 72 nM against Cholinesterase [2]. The results for the Ratio IC50 in [3] and in [4] were 3 to 21 and 2 to 140, respectively.
As for `Clc1ccc2c(NCc3cn(Cc4ccccc4)nn3)c3c(nc2c1)CCCC3`, the concentration for half-maximal inhibition (IC50) was 2320 nM against Acetylcholinesterase [1]; 197 nM at Cholinesterase [2]; 97.3 µM in the assay on T47D; over 100 µM with MCF7; over 100 µM in the assay with MDA-MB-231. The Ratio IC50 in assay [3] lay in the range of 3 to 21; in assay [4], 2 to 140.
With `Clc1ccc(Cn2cc(CNc3c4c(nc5cc(Cl)ccc35)CCCC4)nn2)cc1`, the IC50 was 983 nM against Acetylcholinesterase [1] and over 5000 nM at Cholinesterase [2]. For the same compound, the Ratio IC50 was in the range of 3 to 21 in assay [3] and 2 to 140 in assay [4].
With `Cc1ccc(Cn2cc(CNc3c4c(nc5ccc(Cl)cc35)CCCC4)nn2)cc1`, the result in assay [6] was inactive. Moreover, the concentration for half-maximal inhibition (IC50) against Acetylcholinesterase [1] was determined as 768 nM; against Cholinesterase [2], 747 nM. The Ratio IC50 lay within 3 to 21 in [3] and 2 to 140 in assay [4].
Regarding `Fc1ccc(Cn2cc(CNc3c4c(nc5ccc(Cl)cc35)CCCC4)nn2)cc1`, the figures for the IC50 against Acetylcholinesterase [1] and against Cholinesterase [2] were 1440 nM and 721 nM, respectively. The Ratio IC50 in assay [3] is 3 to 21; in assay [4], 2 to 140.
On to `COc1ccc(Cn2cc(CNc3c4c(nc5ccc(Cl)cc35)CCCC4)nn2)cc1`, for which the viability at 50 µM in the assay with PC-12 [7] turned out to be 73.5%. The result in the assay on Rattus norvegicus [8], in the assay on Rattus norvegicus [9] and in the assay on Rattus norvegicus [13] was Active. Besides, the result (in [6]; with Rattus norvegicus [10]) was inactive. The IC50 is 521 nM on Acetylcholinesterase [1]; 1850 nM on Cholinesterase [2]; over 100 µM with T47D; over 100 µM in the assay on MCF7; over 100 µM in the assay with MDA-MB-231. The viability at 100 µM with PC-12 [11] came to 74.8%. Also, the values for the Ratio IC50 in assay [3] and in assay [4] were 3 to 21 and 2 to 140, respectively. Moreover, the Ki at Acetylcholinesterase [12] stood at 940 nM. In addition, the viability at 10 µM with PC-12 [14] turned out to be 65.4%.
Turning to `Clc1ccc(Cn2cc(CNc3c4c(nc5ccc(Cl)cc35)CCCC4)nn2)cc1`, the IC50 on Acetylcholinesterase [1] worked out at 1960 nM; at Cholinesterase [2], 3940 nM. The Ratio IC50 in assay [3] fell in the range of 3 to 21; in assay [4], 2 to 140.
